Experimental data as given in patent US11466020B2, “Compounds and compositions for inhibition and elimination of Zika infection and uses for same” (Cornell University, priority 2017, dated 2022).
Counter-ions that a name gives are not always drawn.

Columns and labels:
ZIKV (PRVABC59 strain) = test: ZIKV PRVABC59 infection of hNPCs (immunocytochemistry); assay type: cell-based, Zika virus; conditions: MOI=0.125, 72 h
Experimental: (A) Scheme of high content chemical screen. (B) Chemical structure of hit compounds. (C) Inhibitory curve and IC50 of HH or AQ on hNPCs (n=6). (D-H) Immunocytochemistry analysis (D), the quantification of the infection rate (E), the quantification of proliferation rate (F), the quantification of cell apoptosis rate (G) and the normalized cell viability (H) of hNPCs at 72 h after ZIKV (MR 766 strain) infection with or without drug treatment. Scale bars, 100 μm. The ZIKV infection rate is defined as the percentage of ZIKV E^+ cells. The proliferation rate is defined as the percentages of Ki67^+ cells. The cell apoptosis rate was defined as the percentage of cleaved-Caspase 3/CAS3^+ cells. The normalized cell viability was calculated by dividing the total cell number of each condition by the total cell number under mock infection conditions. (n=6). […] (K) Quantification of ZIKV infectious particles produced by ZIKV-infected hNPCs with or without compound treatment by the Vero cell reinfection assay. […] (M and N) Immunocytochemistry analysis (M) and quantification of the infection rate (N) of hNPCs at 72 h after ZIKV (PRVABC59 strain) infection with or without drug treatment (n=6). Scale bars, 100 μm. p values were calculated by one-way repeated measures ANOVA with a Bonferroni test for multiple comparisons. *p<0.05, **p<0.01 and ***p<0.001. […]

ZIKV MR766 = test: Inhibition of ZIKV infection of hNPCs (high content screen / inhibitory curve, ZIKV E staining); assay type: cell-based, Zika virus; conditions: for ZIKV infection of hNPCs compared to DMSO controls: 72 h after ZIKV (MR766) infection; for IC50: Zika virus, hNPCs, ZIKV MR766 MOI=0.125, compound added before infection, infection rate (ZIKV E+ cells), read-out: IC50 values of anti-ZIKV activity
Experimental: A high content chemical screen identifies compounds that inhibit ZIKV infection of hNPCs. To identify drugs that inhibit ZIKV infection, we screened the Prestwick library that includes 1120 FDA-approved drug and drug candidates, selected for known bioavailability and safety in humans. To perform the screen, hNPCs seeded in 384-well plates were treated with each compound from the library or vehicle control (DMSO) for 1 hour, followed by addition of ZIKV MR766 at a MOI=0.125. After two hour of inoculation with ZIKV, the virus-containing medium was replaced by fresh virus-free medium and compounds were replenished for each well (See Methods). After an additional three days of culture, cells were fixed and stained with antibodies against the ZIKV envelop protein (ZIKV E) and a cell proliferation marker Ki67 (FIG. 1A). The percentages of ZIKV E^+ cells, Ki67^+ cells and total cell number were quantified by an automated imaging and analysis system. A two dimensional analysis was performed to choose the primary hit compounds (FIG. 5A). The X-axis represents the fold change of total cell number, which was calculated by dividing the total cell number of the chemical-treated well by the average total cell number of DMSO-treated wells. The Y-axis represents the fold change of the percentage of ZIKV infected cells, which was calculated by dividing the percentage of cells expressing ZIKV E in each chemical-treated well by the average of the percentage of cells expressing ZIKV E from DMSO-treated wells. […] Based on the fold change of the percentage of ZIKV infection, the signal-to-basal (S/B) ratio is 4.2 and the coefficient of variation (CV) is 6.9%. The Z factor is 0.59 indicating a robust screening system.
hNPCs were plated on 96-well plates at 8.5×10^4/cm^2. After overnight incubation, hNPCs were infected with ZIKV (MR766 strain, MOI=0.125) for 2 h, and changed to virus-free medium. The cells were maintained in NPC medium with daily medium change. Three days later, the supernatant and cells were collected and used for assays. hESC-derived forebrain organoids were infected with ZIKV MR766 (5×10^5 PFU/ml) for 24 h. After removal of virus containing medium, forebrain organoids were maintained in forebrain organoid medium for an additional 3 or 17 days and then used for assays.
High-content Screen. hNPCs were dissociated and plated on Matrigel-coated 384-well plates for the chemical screen. […] DMSO was used as a negative control. ZIKV MR766 was added at MOI=0.125. After 2 hour infection, the supernatant was replaced with fresh medium and compounds from the same chemical library were added to the same wells. After an additional 3 days incubation, cells were fixed, stained with antibodies against ZIKV envelop protein (ZIKV E) and proliferation marker Ki67, and analyzed with the ImageXpress^MICRO Automated High-Content Analysis System. […] X-axis represents the fold change of total cell number, which was calculated by dividing the total cell number of the chemical treated well by the average of total cell number of DMSO treated wells. Y-axis represents the fold change of the percentage of ZIKV infection, which was calculated by dividing the percentage of ZIKV infection of the chemical treated well by the average of the percentage of ZIKV infection of DMSO treated wells. The compounds in which the fold change of total cell number >1 and the fold change of the percentage of ZIKV infection <20% were further evaluated. […]

In the case of `CCN(CC)Cc1cc(Nc2ccnc3cc(Cl)ccc23)ccc1O` [AQ, amodiaquine dihydrochloride dihydrate], the “ZIKV (PRVABC59) infection of hNPCs” value (ZIKV (PRVABC59 strain); 15 μM AQ) is reported as “effectively inhibited ZIKV infection”, the “ZIKV infection of hNPCs compared to DMSO controls” value (ZIKV MR766) is reported as “effectively inhibited ZIKV infection” and the IC50 (ZIKV MR766) is reported as 6 µM.

`CN1CCC2=C[C@H](O)[C@H]3OC(=O)c4cc5c(cc4[C@H]3[C@@H]21)OCO5` [HH, hippeastrine hydrobromide] was tested, and the “ZIKV (PRVABC59) infection of hNPCs” value (ZIKV (PRVABC59 strain); 25 μM HH) was “effectively inhibited ZIKV infection”, the “ZIKV infection of hNPCs compared to DMSO controls” value (ZIKV MR766) was “effectively inhibited ZIKV infection” and the IC50 (ZIKV MR766) was 5.5 µM.
